Reference: publication doi:10.1101/2021.06.10.447950v1 (biorxiv, 2021)

Columns and labels:
Assay in all cases: fluorogenic peptidase assay, initial rate
Assay type in all cases: biochemical
[1] = target: cathepsin B (Homo sapiens, UniProt P07858)
[2] = target: T1, cathepsin K (Homo sapiens, UniProt P43235)
T1 sequence (P43235 115-329): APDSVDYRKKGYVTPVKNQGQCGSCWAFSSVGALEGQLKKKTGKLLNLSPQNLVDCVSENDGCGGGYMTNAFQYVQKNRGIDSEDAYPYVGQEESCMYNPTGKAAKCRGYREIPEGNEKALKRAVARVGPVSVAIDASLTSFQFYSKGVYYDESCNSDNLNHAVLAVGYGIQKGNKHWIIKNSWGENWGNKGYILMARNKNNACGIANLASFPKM

[3] = target: cathepsin L (Homo sapiens, UniProt P07711)
Chain of cathepsin L (P07711 114-288): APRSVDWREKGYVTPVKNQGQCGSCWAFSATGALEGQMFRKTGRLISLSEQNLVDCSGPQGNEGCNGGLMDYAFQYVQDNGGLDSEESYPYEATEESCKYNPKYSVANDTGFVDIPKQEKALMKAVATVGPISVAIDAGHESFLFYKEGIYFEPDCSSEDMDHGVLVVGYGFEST
Chain of cathepsin L (P07711 292-333): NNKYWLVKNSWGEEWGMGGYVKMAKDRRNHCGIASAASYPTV

Compound | IC50 [1] [nM] | IC50 [2] [nM] | IC50 [3] [nM]
O=C[C@H](C[C@@H]1CCNC1=O)NC(=O)[C@H](CC1CCCCC1)NC(=O)c1cc2ccccc2[nH]1 [11a] | 4.9 ± 0.4 | 1.4 ± 0.2 | 0.14 ± 0.04
O=C[C@H](C[C@@H]1CCNC1=O)NC(=O)[C@H](Cc1ccccc1)NC(=O)OCc1ccccc1 [MPI1] | 25 ± 2 | 0.88 ± 0.12 | 0.079 ± 0.029
O=C[C@H](C[C@@H]1CCNC1=O)NC(=O)[C@H](Cc1ccccc1)NC(=O)/C=C/c1ccc(Cl)cc1F [MPI2] | 4.1 ± 0.4 | 0.78 ± 0.06 | 0.19 ± 0.03
CC(C)C[C@H](NC(=O)[C@@H](NC(=O)OCc1ccccc1)C(C)C)C(=O)N[C@H](C=O)C[C@@H]1CCNC1=O [MPI3] | 112 ± 10 | 1.18 ± 0.18 | 0.3 ± 0.07
CC(C)[C@H](NC(=O)OCc1ccccc1)C(=O)N[C@@H](Cc1ccccc1)C(=O)N[C@H](C=O)C[C@@H]1CCNC1=O [MPI4] | 46 ± 3 | 49 ± 16 | 0.33 ± 0.04
CC(C)[C@H](NC(=O)OCc1ccccc1)C(=O)N[C@@H](CC1CCCCC1)C(=O)N[C@H](C=O)C[C@@H]1CCNC1=O [MPI5] | 80 ± 6 | 134 ± 18 | 2.3 ± 1.9
CC(C)C[C@H](NC(=O)[C@@H](NC(=O)OCc1ccccc1)[C@@H](C)OC(C)(C)C)C(=O)N[C@H](C=O)C[C@@H]1CCNC1=O [MPI6] | 380 ± 21 | 1.07 ± 0.21 | 0.45 ± 0.08
C[C@@H](OC(C)(C)C)[C@H](NC(=O)OCc1ccccc1)C(=O)N[C@@H](Cc1ccccc1)C(=O)N[C@H](C=O)C[C@@H]1CCNC1=O [MPI7] | 64 ± 7 | 51 ± 6 | 0.61 ± 0.15
C[C@@H](OC(C)(C)C)[C@H](NC(=O)OCc1ccccc1)C(=O)N[C@@H](CC1CCCCC1)C(=O)N[C@H](C=O)C[C@@H]1CCNC1=O [MPI8] | 230 ± 20 |  | 
CC(C)C[C@H](NC(=O)[C@@H](NC(=O)/C=C/c1ccc(Cl)cc1F)C(C)C)C(=O)N[C@H](C=O)C[C@@H]1CCNC1=O [MPI9] | 147 ± 10 | 1.5 ± 0.2 | 0.56 ± 0.06
